Source: paper PMC10281575, “PfCRT mutations conferring piperaquine resistance in falciparum malaria shape the kinetics of quinoline drug binding and transport” (PLOS Pathogens, 2023)
“And” between values parts separate entries of the source, which are not always exact repeats. Equal values may be shown once.

Biological target: T1, PfCRT^Dd2_F145I (Plasmodium falciparum, UniProt Q8IBZ9, A220S/F145I/I356T/K76T/M74I/N326S/N75E/Q271E/R371I)
T1 construct: expressed in transfected cells; host or cells: Xenopus laevis oocytes injected with in vitro transcribed RNA (pSP64T)
T1 sequence (Q8IBZ9 1-424 M74I/N75E/K76T/F145I/A220S/Q271E/N326S/I356T/R371I): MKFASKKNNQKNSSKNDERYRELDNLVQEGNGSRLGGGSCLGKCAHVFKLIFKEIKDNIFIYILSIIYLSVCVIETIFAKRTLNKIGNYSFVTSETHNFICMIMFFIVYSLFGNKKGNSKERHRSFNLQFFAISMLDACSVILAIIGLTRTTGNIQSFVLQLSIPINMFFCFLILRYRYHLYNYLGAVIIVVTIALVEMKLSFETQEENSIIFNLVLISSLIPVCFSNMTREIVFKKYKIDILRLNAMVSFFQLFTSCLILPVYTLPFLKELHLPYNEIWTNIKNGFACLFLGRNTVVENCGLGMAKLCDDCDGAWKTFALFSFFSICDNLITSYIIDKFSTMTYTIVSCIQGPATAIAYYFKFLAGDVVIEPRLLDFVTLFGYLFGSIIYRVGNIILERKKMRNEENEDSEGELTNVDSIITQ
Experiment: Competition plot (Vtotal versus proportion of PPQ in CQ/PPQ mixtures), PfCRT^Dd2_F145I
Assay type: cell-based
Conditions: for competition plot result (binding sites): CQ/PPQ mixtures, Vtotal dependent on P
Experimental: To test this hypothesis, we performed competition plot experiments, in which the enzyme or carrier is exposed to substrate mixtures that give the same transport rate for different substrates. The experiment is performed with substrate A labeled and then repeated with substrate B labeled. […] Similar results were found for PfCRT^Dd2_F145I.
Fig 3 Competition plot of the interaction of PfCRT^Dd2 (A) and PfCRT^Dd2_F145I (B) with CQ and PPQ. The competition plot tests whether two substrates bind to the same site or distinct sites on an enzyme or transporter. A competitive reaction would yield data points that lie on a horizontal line, whereas allosteric interactions would reveal a curved relationship. PfCRT-mediated drug uptake was measured from mixtures of radiolabeled CQ and PPQ that combined yielded an uptake close to saturation (Vtotal). Vtotal was subsequently analyzed as a function of the proportion of PPQ in the mixture (P). For more details see Materials and Methods. The mean ± SEM of at least 3 independent biological replicates are shown.
The competition plot was performed as described elsewhere. Briefly, a concentration of CQ and a concentration of PPQ were selected (using the parameters from Table 1), such that (i) the rate of PPQ transport was equivalent to the rate of CQ transport, and (ii) the transport rate for CQ (the less efficiently transported substrate) approached its Vmax. The resulting concentrations for PfCRT^Dd2 were [CQ]^max = 400 μM and [PPQ]^max = 23.1 μM. At these concentrations of CQ and PPQ, the expected uptake is 19.8 pmol h^-1 oocyte^-1. The resulting concentrations for PfCRT^Dd2_F145I were [CQ]^max = 400 μM and [PPQ]^max = 18.2 μM. At these concentrations of CQ and PPQ, the expected uptake is 18.2 pmol h^-1 oocyte^-1. A series of reaction buffers containing CQ and PPQ at concentrations [CQ] = (1—P) x [CQ]^max and [PPQ] = P x [PPQ]^max were assembled, where P is the proportion of PPQ in the mixture. […] These corresponded to values of P equal to 0, 0.25, 0.5, 0.75, 0.9 and 1. A plot of Vtotal as a function of P yielded the competition plots. If both substrates bind to the same site, then a constant Vtotal is expected across all P values (e.g. data lies on a horizontal line). If the substrates bind to different sites, and they inhibit each other’s transport, it is expected that the curve is concave with either a minimum or a maximum.

[1] = CQ/PPQ mixture, P = 0.25, single replicates
[2] = CQ/PPQ mixture, P = 0.5, single replicates
[3] = CQ/PPQ mixture, P = 0.75, single replicates
[4] = CQ/PPQ mixture, P = 0.9, single replicates

SMILES | PfCRTDd2_F145I-mediated CQ transport P = 0 (CQ/PPQ mixture, P = 0, single replicates) | PfCRTDd2_F145I-mediated CQ transport P = 0.25 [1] | PfCRTDd2_F145I-mediated CQ transport P = 0.5 [2] | PfCRTDd2_F145I-mediated CQ transport P = 0.75 [3] | PfCRTDd2_F145I-mediated CQ transport P = 0.9 [4] | competition plot result (binding sites) | PfCRTDd2_F145I-mediated PPQ transport P = 0.25 [1] | PfCRTDd2_F145I-mediated PPQ transport P = 0.5 [2] | PfCRTDd2_F145I-mediated PPQ transport P = 0.75 [3] | PfCRTDd2_F145I-mediated PPQ transport P = 0.9 [4] | PfCRTDd2_F145I-mediated PPQ transport P = 1 (CQ/PPQ mixture, P = 1, single replicates)
CCN(CC)CCCC(C)Nc1ccnc2cc(Cl)ccc12 (stereo not drawn) [CQ, chloroquine] | 14.23 pmol oocyte-1 h-1 and 18.19 pmol oocyte-1 h-1 and 22.31 pmol oocyte-1 h-1 | 16.38 pmol oocyte-1 h-1 and 14.89 pmol oocyte-1 h-1 and 14.95 pmol oocyte-1 h-1 | 11.20 pmol oocyte-1 h-1 and 13.42 pmol oocyte-1 h-1 and 11.66 pmol oocyte-1 h-1 | 8.54 pmol oocyte-1 h-1 and 5.74 pmol oocyte-1 h-1 and 7.98 pmol oocyte-1 h-1 | 3.23 pmol oocyte-1 h-1 and 2.52 pmol oocyte-1 h-1 | occupy different domains | – | – | – | – | –
Clc1ccc2c(N3CCN(CCCN4CCN(c5ccnc6cc(Cl)ccc56)CC4)CC3)ccnc2c1 [PPQ, piperaquine] | – | – | – | – | – | occupy different domains | 3.27 pmol oocyte-1 h-1 and 3.77 pmol oocyte-1 h-1 and 3.82 pmol oocyte-1 h-1 | 7.53 pmol oocyte-1 h-1 and 7.99 pmol oocyte-1 h-1 and 8.13 pmol oocyte-1 h-1 | 12.62 pmol oocyte-1 h-1 and 13.41 pmol oocyte-1 h-1 and 10.66 pmol oocyte-1 h-1 | 15.10 pmol oocyte-1 h-1 and 16.36 pmol oocyte-1 h-1 and 16.00 pmol oocyte-1 h-1 | 16.57 pmol oocyte-1 h-1 and 18.61 pmol oocyte-1 h-1 and 20.05 pmol oocyte-1 h-1
